Measurements taken from patent US11207365B2, “Combined preparations of urinary acidifiers and crystallization inhibitors and application thereof for the treatment or prevention of phosphatic or calcium phosphate-induced renal lithiasis” (UNIVERSITAT DE LES ILLES BALEARS, priority 2014, dated 2021).

Test: Induction time for the crystallization of calcium phosphate in artificial urine
Settings: for induction time t: 15 mM phosphate and 3 mM calcium solution in artificial urine (no magnesium); for delay in the induction time: 1 μM phytate versus solution without inhibitor
Experimental: From a 15 mM phosphate ion and 3 mM calcium ion solution in artificial urine, the induction times for the crystallization of calcium phosphate have been calculated at different pH and phytate concentration. The artificial urine had no magnesium since it is shown that the magnesium ion is a calcium phosphate crystallization inhibitor. […] Thus, while at pH 6.75, the calcium phosphate solution (without inhibitor) takes 1 minute to crystallize, with 1 μM phytate it takes 2 minutes (the delay in the induction time at this pH value is 1 minute, for 1 μM phytate). However, when the pH decreases to 6.60, the calcium phosphate solution (without inhibitor) takes 6 minutes to crystallize, while with 1 μM phytate it takes 33 minutes (the delay in the induction time at this pH value is 27 minutes, for 1 μM phytate). Thus, for the same amount of inhibitor there is a significant increase of the crystallization time when the value of the pH of the solution decreases.

O=P(O)(O)O[C@H]1[C@H](OP(=O)(O)O)[C@@H](OP(=O)(O)O)[C@H](OP(=O)(O)O)[C@@H](OP(=O)(O)O)[C@H]1OP(=O)(O)O [phytate, myo-inositol-hexaphosphate]
induction time t (0.5 μM phytate, pH = 6.60): 12 min
induction time t (0.5 μM phytate, pH = 6.65): 4 min
induction time t (0.5 μM phytate, pH = 6.75): 1 min
delay in the induction time (pH 6.60): 27 min
delay in the induction time (pH 6.75): 1 min
induction time t (1.0 μM phytate, pH = 6.60): 33 min
induction time t (1.0 μM phytate, pH = 6.65): 6 min
induction time t (1.0 μM phytate, pH = 6.75): 2 min
